Assay results reported in patent publication US11319344B2, “Non-membrane disruptive P53 activating stapled peptides” (AGENCY FOR SCIENCE, TECHNOLOGY AND RESEARCH, priority 2015, dated 2022).
Like-named read-outs stand apart in the source and are kept apart here.

Experiments:
[1] = biological target: N-terminal domain of Mdm2 (1-125) (Homo sapiens, UniProt Q00987); assay: Competitive fluorescence anisotropy titration (apparent Kd); settings: ratio to YS-01/YS-02 Kd
Procedure: In this assay, a N-terminally FAM labelled peptide of the sequence [sequence]
The cells expressing the Mdm2 GST fusion construct were grown in LB medium at 37° C. to an OD600 of ˜0.6 and induction was carried out with 1 mM isopropyl β-D-1-thiogalactopyranoside (IPTG) at room temperature. Cells were harvested by centrifugation and the cell pellets were resuspended in 50 mM Tris pH 8.0, 10% sucrose and then sonicated. The sonicated sample was centrifuged for 60 minutes at 17,000 g at 4° C. […] The column was then further washed by 6 volumes of wash buffer. Mdm2 were then purified from the column by cleavage with PreScission protease. 10 units of PreScission protease, in one column volume of PBS with 1 mM DTT buffer, were injected onto the column. The cleavage reaction was allowed to proceed overnight at 4° C. The cleaved protein was then eluted of the column with wash buffer. Protein fractions were analysed with SDS-PAGE and concentrated using a Centricon (3.5 kDa molecular weight cut-off (MWCO)) concentrator. The Mdm2 protein sample was then dialyzed into a buffer solution containing 20 mM Bis-Tris, pH 6.5, 0.05M NaCl with 1 mM DTT and loaded onto a monoS column pre-equilibrated in buffer A (20 mM Bis-Tris, pH 6.5, 1 mM DTT). The column was then washed in 6 column volumes of buffer A and bound protein was eluted with a linear gradient of 1M NaCl over 25 column volumes. Protein fractions were analysed with sodium dodecyl sulfate-polyacrylamide gel electrophoresis (SDS-PAGE) and concentrated using a Centricon (3.5 kDa molecular weight cut-off (MWCO)) concentrator.
Apparent dissociation constant (Kd) values were determined for a variety of molecules via competitive fluorescence anisotropy experiments. […] The competing molecules were then titrated against the complex of the FAM labelled peptide and protein. Apparent dissociation constant (Kd) values were determined by fitting the experimental data to the equations shown below:
[L]st and [L]t denote labelled ligand and total unlabelled ligand input concentrations, respectively. Kd2 is the dissociation constant of the interaction between the unlabelled ligand and the protein. In all competitive types of experiments, it is assumed that [P]t>[L]st, otherwise considerable amounts of free labelled ligand would always be present and would interfere with measurements. […] The FAM-labelled peptide was dissolved in dimethyl sulfoxide (DMSO) at 1 mM and diluted into experimental buffer. Readings were carried out with a Envision Multilabel Reader. […] All titrations were carried out in triplicate. Curve-fitting was carried out using Prism 4.0 (GraphPad). […]

[2] = system: p53 transcriptional activity in T22 cells; assay: T22 p53 β-galactosidase based reporter assay; assay type: cell-based, murine; settings: for IC50: T22 p53 reporter assay, 18 h
Procedure: The YS-01/04 peptides were screened in a murine T22-derived p53 reporter assay, either with or without fetal calf serum, to assess their ability to induce p53 transcriptional activity in intact cells (Table 1 and FIG. 3).
(§1) T22 cells, which were stably transfected with a p53 responsive β-galactosidase reporter, were seeded into 96-well plate at a cell density of 8000 cells per well. Cells were also maintained in Dulbecco's Minimal Eagle Medium (DMEM) with 10% fetal bovine serum (FBS) and penicillin/streptomycin. […] Measurements were carried out using a Safire II multiplate reader. Experiments were carried out independently twice.

[3] = Circular dichroism spectroscopy (helicity in solution); assay type: physicochemical; settings: peptide unbound in solution
[4] = system: p53 and Mdm2 protein levels in T22 cells; assay: T22 western blot analysis of p53 and Mdm2 protein levels; assay type: cell-based, Murine; settings: 25 μM and 50 μM, 18 h, with or without fetal calf serum
From the text: The YS-01/04 peptides were screened in a murine T22-derived p53 reporter assay, either with or without fetal calf serum, to assess their ability to induce p53 transcriptional activity in intact cells (Table 1 and FIG. 3). […] Considering the similar affinities that these peptides have for Mdm2, the difference in their IC50 values must reflect a change in their ability to enter the cell. This difference is observed for both sets of peptides (YS-01 and YS-02, YS-03 and YS-04, FIG. 3), which implies that the hydroxyl group of the C-terminal Y30 is responsible for the reduced efficiency of intracellular uptake. p53 and Mdm2 protein levels were then directly probed using western blot analysis. T22 cells were treated with 25 μM and 50 μM of YS-03 either with or without the presence of fetal calf serum (FIG. 4).
T22 Murine cells were seeded into 12 well plates at a cell density of 150000 cells per well and incubated overnight. Cells were also maintained in DMEM media with 10% fetal bovine serum (FBS) and penicillin/streptomycin. Cells were treated with various compounds/vehicle controls at the time points and concentrations indicated either in DMEM media with or without 10% FBS. Cells were rinsed with PBS and then harvested in 50 μl of 1×NuPAGE LDS sample buffer (NP0008). […] Protein concentrations were measured by BCA assay. […]

[5] = system: T22 cells; assay: Lactate dehydrogenase release assay, T22 cells; assay type: cell-based; settings: 2 h, serum free
Procedure: (§2) The stapled YS-01/04 peptides were also screened for their ability to perturb the cell membrane wall of T22 and ARN8 cells and release cytosolic lactate dehydrogenase (LDH). An effect that is regarded as undesirable as this may indicate that the peptide is non-specifically toxic to different cell types. A short 2 hour time treatment period is used for this assay as it is assumed that perforation of the cell membrane occurs […] for cell programmed death. […] The lactate dehydrogenase leakage measured was much greater in ARN8 cells than T22 cells, showing that different cells vary in their sensitivities to the membrane disruptive properties of YS-03. […] This implies that p53 activation, which is also supported by the data for YS-04, does occur in the absence of membrane disruption and that the biological activity observed for is not a direct consequence of cellular toxicity.
(§3) T22 cells or ARN8 cells, both of which were stably transfected with a p53 responsive β-galactosidase reporter, were seeded into a 96-well plate at a cell density of 5000 cells per well. Cells were also maintained in Dulbecco's Minimal Eagle Medium (DMEM) with 10% fetal bovine serum (FBS) and penicillin/streptomycin. The cells were incubated for 24 hours and then treated with compounds/peptide for 2 hours in DMEM with or without 10% FBS. Cytosolic lactate dehydrogenase release was detected using the non-radioactive cytotoxicity Assay kit (Promega) as per manufacturer's instructions. Measurements were carried out using an Envision multiplate reader.

[6] = system: ARN8 cells; assay: Lactate dehydrogenase release assay, ARN8 cells; assay type: cell-based; settings: 2 h, serum free
Procedure: as §2, §3

[7] = system: p53 transcriptional activity in ARN8 cells; assay: ARN8 β-galactosidase based p53 reporter assay; assay type: cell-based, Human; settings: serum free, 18 h
Procedure: ARN8 cells contain the same β-galactosidase gene under the control of a p53 promoter that is stably transfected into T22 cells. […] The YS-07 and YS-09 titrations were again repeated and the lactate dehydrogenase leakage from ARN8 cells measured instead (FIGS. 8c and 8d).
as §1, with “ARN8” for “T22”

[8] = absence of serum, read-out: T22 IC50 (0% μM)
[9] = presence of 10% fetal calf serum, read-out: T22 Ic50 (10% μM)

Sequence of N-terminal domain of Mdm2 (1-125) (Q00987 1-125): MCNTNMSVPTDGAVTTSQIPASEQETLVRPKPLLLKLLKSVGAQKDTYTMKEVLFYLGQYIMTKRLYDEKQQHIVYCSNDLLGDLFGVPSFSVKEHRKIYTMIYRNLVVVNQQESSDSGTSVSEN

Kd weaker than the i,i+4 analogue peptides (YS-01 and YS-02) [1]	SMILES	IC50 [2, 8]	IC50 [2, 9]	ability to induce p53 activity in T22 reporter assay ([2]; with and without serum)	helicity in solution (CD spectra) [3]	p53 and Mdm2 protein levels (western blot) [4]	cytosolic lactate dehydrogenase (LDH) release [5]	cytosolic lactate dehydrogenase (LDH) release [6]	p53 activation (β-galactosidase activity) in ARN8 cells [7]
approximately 2 fold	CC(=O)N[C@H](C(=O)N[C@@H](CO)C(=O)N[C@@H](Cc1ccccc1)C(=O)NC1(C)CCCCCCC=CCCCC(C)(C(=O)N[C@@H](CCC(=O)O)C(=O)N[C@@H](CC(N)=O)C(=O)N[C@@H](Cc2ccccc2)C(N)=O)NC(=O)[C@H](CC(C)C)NC(=O)[C@H](CC(C)C)NC(=O)[C@H](C)NC(=O)[C@H](Cc2c[nH]c3ccccc23)NC(=O)[C@H](Cc2ccc(O)cc2)NC(=O)[C@H](CCC(=O)O)NC1=O)[C@@H](C)O (some centres unmarked) [YS-03, Ac-^17TSFX8EYWALLS5ENF^30-NH2]	4.57 µM	54.7 µM	greater potency in the T22 assay than YS-01 and YS-02	significantly more helical in character in solution than YS-01 and YS-02	induction of p53 and Mdm2 protein levels			
	CC(=O)N[C@H](C(=O)N[C@@H](CO)C(=O)N[C@@H](Cc1ccccc1)C(=O)N[C@]1(C)CCCCCCC=CCCC[C@@](C)(C(N)=O)NC(=O)[C@H](CC(C)C)NC(=O)[C@H](CC(C)C)NC(=O)[C@H](C)NC(=O)[C@H](Cc2c[nH]c3ccccc23)NC(=O)[C@H](Cc2ccc(O)cc2)NC(=O)[C@H](CCC(=O)O)NC1=O)[C@@H](C)O [sMTide-02, Ac-TSFX8EYWALLS5-NH2, reference compound]	2.75 µM	17.9 µM				significant amounts of lactate dehydrogenase leakage	large amounts of lactate dehydrogenase leakage	poorly induces p53 activity
